From article PMC11170711, “Pharmacophore Virtual Screening Identifies Riboflavin as an Inhibitor of the Schistosome Cathepsin B1 Protease with Antiparasitic Activity” (ACS Omega, 2024)

Target: T1, human cathepsin B (Homo sapiens, UniProt P07858)
T1 construct: gene CTSB
Test: fluorogenic Z-RR-AMC hydrolysis assay with recombinant enzyme, without and with […] Triton X-[…] with detergent
Type: biochemical

SMILES: Cc1cc2nc3c(=O)[nH]c(=O)nc-3n(C[C@H](O)[C@H](O)[C@H](O)CO)c2cc1C [RBF, riboflavin]
- IC50: 12.1 ± 1.86 µM
